Among the data in US10294229B2, “Heteroaryl substituted aminopyridine compounds” (BRISTOL-MYERS SQUIBB COMPANY, priority 2015, dated 2019) are IC50 and EC50 values, retold here.

Test [1] addresses IRAK4 (Homo sapiens (Human), UniProt Q9NWZ3). Kind of test: IRAK4 Inhibition Assay. It counts as biochemical. The note with it: ATP 500 μM; IRAK4 0.6 nM. The procedure, abridged: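 Readout: electrophoretic (LabChip) separation of fluorescent peptide substrate from phosphorylated product after EDTA quench. Reactions ran 60 min at room temperature with 0.6 nM IRAK4, 1.5 μM peptide and 500 μM ATP; inhibition referenced to no-enzyme (100%) and vehicle (0%) controls.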

In test [2] the test system is Human whole blood stimulated with a TLR2 agonist (lipoteichoic acid), IL-6 levels. The test can be described thus: IRAK4 Whole Blood Assay. It counts as cell-based. The note with it: lipoteichoic acid 10 μg/mL. The method in brief:
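IL-6 was quantified by cytometric bead assay in supernatants of human blood (ACD-A) stimulated for 5 h with lipoteichoic acid at 10 μg/mL final. Compound exposure preceded stimulation for 60 min at 37 °C, 5% CO2.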

IRAK4, sequence (Q9NWZ3 whole entry, species assumed): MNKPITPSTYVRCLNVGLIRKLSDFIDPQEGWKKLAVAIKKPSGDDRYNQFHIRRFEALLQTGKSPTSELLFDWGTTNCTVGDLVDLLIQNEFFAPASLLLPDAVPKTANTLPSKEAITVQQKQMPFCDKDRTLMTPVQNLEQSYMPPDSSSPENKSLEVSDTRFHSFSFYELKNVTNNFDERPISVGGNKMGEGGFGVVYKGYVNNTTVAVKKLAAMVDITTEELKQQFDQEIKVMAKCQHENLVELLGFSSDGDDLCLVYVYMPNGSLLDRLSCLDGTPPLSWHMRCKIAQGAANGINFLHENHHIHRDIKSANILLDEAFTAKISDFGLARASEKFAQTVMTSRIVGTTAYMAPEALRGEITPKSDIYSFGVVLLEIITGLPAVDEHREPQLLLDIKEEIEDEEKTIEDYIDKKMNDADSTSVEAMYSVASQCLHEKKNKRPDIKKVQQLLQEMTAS

For the compound `CC(C)Nc1cc(-n2ncc3cc(C#N)cnc32)ncc1-c1cn(C2CN(C(=O)C3CC3)C2)nn1` [Example 145, 1-(5-(1-(1-(cyclopropanecarbonyl)azetidin-3-yl)-1H-1,2,3-triazol-4-yl)-4-(isopropylamino)pyridin-2-yl)-1H-pyrazolo[3,4-b]pyridine-5-carbonitrile], the IC50 in test [1] was 4 nM. Moreover, in test [2] (Homo sapiens), a half-maximal response (EC50) required 740 nM.
For the compound `CC(C)Nc1cc(-n2ncc3cc(C#N)cnc32)ncc1-c1cn(C2CN(C(=O)C(C)(C)C)C2)nn1` [Example 146, 1-(4-(isopropylamino)-5-(1-(1-pivaloylazetidin-3-yl)-1H-1,2,3-triazol-4-yl)pyridin-2-yl)-1H-pyrazolo[3,4-b]pyridine-5-carbonitrile], the IC50 in test [1] turned out to be 3 nM. In addition, the EC50 in test [2] (Homo sapiens) is 1090 nM.
On the same counts, the results for `CC(C)Nc1cc(-n2ncc3cc(C#N)cnc32)ncc1-c1cn(C2CN(c3ncccn3)C2)nn1` [Example 147, 1-(4-(isopropylamino)-5-(1-(1-(pyrimidin-2-yl)azetidin-3-yl)-1H-1,2,3-triazol-4-yl)pyridin-2-yl)-1H-pyrazolo[3,4-b]pyridine-5-carbonitrile] are 5 nM and 1060 nM.
On the same counts, the results for `Cc1nnc(N2CC(n3cc(-c4cnc(-n5ncc6cc(C#N)cnc65)cc4NC(C)C)nn3)C2)o1` [Example 148, 1-(4-(isopropylamino)-5-(1-(1-(5-methyl-1,3,4-oxadiazol-2-yl)azetidin-3-yl)-1H-1,2,3-triazol-4-yl)pyridin-2-yl)-1H-pyrazolo[3,4-b]pyridine-5-carbonitrile] are 5 nM and 1900 nM.
The corresponding values for `CCN1CC(n2cc(-c3cnc(-n4ncc5cc(C#N)cnc54)cc3NC(C)C)nn2)C1` [Example 149, 1-(5-(1-(1-ethylazetidin-3-yl)-1H-1,2,3-triazol-4-yl)-4-(isopropylamino)pyridin-2-yl)-1H-pyrazolo[3,4-b]pyridine-5-carbonitrile] are 2 nM and 730 nM.
As for `CC(C)Nc1cc(-n2ncc3cc(C#N)cnc32)ncc1-c1cn(C2CN(C)C2)nn1` [Example 151, 1-(4-(isopropylamino)-5-(1-(1-methylazetidin-3-yl)-1H-1,2,3-triazol-4-yl)pyridin-2-yl)-1H-pyrazolo[3,4-b]pyridine-5-carbonitrile, 2TFA], the IC50 in test [1] came out at 2 nM. The compound also showed an EC50 in test [2] (Homo sapiens) of 1610 nM.
As for `CC(=O)N1CCC(n2cc(-c3cnc(-n4ncc5cc(C#N)cnc54)cc3NC(C)C)nn2)C1` (stereo not drawn) [Example 158, 1-(5-(1-(1-acetylpyrrolidin-3-yl)-1H-1,2,3-triazol-4-yl)-4-(isopropylamino)pyridin-2-yl)-1H-pyrazolo[3,4-b]pyridine-5-carbonitrile], the IC50 in test [1] stood at 2 nM. The compound further came in with an EC50 in test [2] of 520 nM.
Take `CC(C)Nc1cc(-n2ncc3cc(C#N)cnc32)ncc1-c1cn(C)nn1` [Example 164, 1-(4-(isopropylamino)-5-(1-methyl-1H-1,2,3-triazol-4-yl)pyridin-2-yl)-1H-pyrazolo[3,4-b]pyridine-5-carbonitrile]: the IC50 in test [1] came out at 8 nM. In addition, a half-maximal response in test [2] (Homo sapiens) (EC50) required 600 nM.
On the same counts, the results for `CC(C)Nc1cc(-n2ncc3cc(C#N)cnc32)ncc1-c1cn(C[C@H](N)Cc2ccccc2)nn1` [Example 169, (R)-1-(5-(1-(2-amino-3-phenylpropyl)-1H-1,2,3-triazol-4-yl)-4-(isopropylamino)pyridin-2-yl)-1H-pyrazolo[3,4-b]pyridine-5-carbonitrile] are 17 nM and 2140 nM.
In the case of `CC(C)Nc1cc(-n2ncc3cc(C#N)cnc32)ncc1-c1cn(CCCN)nn1` [Example 171, 1-(5-(1-(3-aminopropyl)-1H-1,2,3-triazol-4-yl)-4-(isopropylamino)pyridin-2-yl)-1H-pyrazolo[3,4-b]pyridine-5-carbonitrile], in test [1], the IC50 worked out at 6 nM. In test [2] (Homo sapiens), this compound came in with an EC50 of 1160 nM.
For `CC(C)Nc1cc(-n2ncc3cc(C#N)cnc32)ncc1-c1cn([C@H]2CCN(C(=O)OC(C)(C)C)C[C@H]2O)nn1` [Example 176, (3R,4S)-tert-butyl 4-(4-(6-(5-cyano-1H-pyrazolo[3,4-b]pyridin-1-yl)-4-(isopropylamino)pyridin-3-yl)-1H-1,2,3-triazol-1-yl)-3-hydroxypiperidine-1-carboxylate], the IC50 in test [1] worked out at 13 nM. The compound also gave an EC50 in test [2] (Homo sapiens) of 2100 nM.
On the same counts, the results for `CC(C)Nc1cc(-n2ncc3cc(C#N)cnc32)ncc1-c1cn([C@H]2CCN(S(C)(=O)=O)C[C@H]2OS(C)(=O)=O)nn1` [Example 182, (3R,4S)-4-(4-(6-(5-cyano-1H-pyrazolo[3,4-b]pyridin-1-yl)-4-(isopropylamino)pyridin-3-yl)-1H-1,2,3-triazol-1-yl)-1-(methylsulfonyl)piperidin-3-yl methanesulfonate] are 5 nM and 750 nM.
The corresponding values for `CC(C)Nc1cc(-n2ncc3cc(C#N)cnc32)ncc1-c1cn([C@H]2CCN(C(=O)c3ccccn3)C[C@H]2O)nn1` [Example 183, 1-(5-(1-((3R,4S)-3-hydroxy-1-picolinoylpiperidin-4-yl)-1H-1,2,3-triazol-4-yl)-4-(isopropylamino)pyridin-2-yl)-1H-pyrazolo[3,4-b]pyridine-5-carbonitrile] are 10 nM and 520 nM.
The corresponding values for `CC(C)Nc1cc(-n2ncc3cc(C#N)cnc32)ncc1-c1cn([C@H]2CCN(C(=O)c3ccncc3)C[C@H]2O)nn1` [Example 185, 1-(5-(1-((3R,4S)-3-hydroxy-1-isonicotinoylpiperidin-4-yl)-1H-1,2,3-triazol-4-yl)-4-(isopropylamino)pyridin-2-yl)-1H-pyrazolo[3,4-b]pyridine-5-carbonitrile] are 8 nM and 1040 nM.
For `CC(C)Nc1cc(-n2ncc3cc(C#N)cnc32)ncc1-c1cn([C@@H]2CCNC[C@@H]2O)nn1` [Example 186, 1-(5-(1-((3S,4R)-3-hydroxypiperidin-4-yl)-1H-1,2,3-triazol-4-yl)-4-(isopropylamino)pyridin-2-yl)-1H-pyrazolo[3,4-b]pyridine-5-carbonitrile], the IC50 in test [1] was 16 nM. In addition, in test [2] (Homo sapiens), the EC50 was 1780 nM.
On the same counts, the results for `CC(=O)N1CCN(C(=O)Cn2cc(-c3cnc(-n4ncc5cc(C#N)cnc54)cc3NC(C)C)nn2)CC1` [Example 194, 1-(5-(1-(2-(4-acetylpiperazin-1-yl)-2-oxoethyl)-1H-1,2,3-triazol-4-yl)-4-(isopropylamino)pyridin-2-yl)-1H-pyrazolo[3,4-b]pyridine-5-carbonitrile] are 6 nM and 620 nM.
The corresponding values for `CC(C)Nc1cc(-n2ncc3cc(C#N)cnc32)ncc1-c1cn([C@H]2CC[C@H](NC(=O)OC(C)(C)C)CC2)nn1` [Example 212, tert-butyl ((trans)-4-(4-(6-(5-cyano-1H-pyrazolo[3,4-b]pyridin-1-yl)-4-(isopropylamino)pyridin-3-yl)-1H-1,2,3-triazol-1-yl)cyclohexyl)carbamate] are 3 nM and 1400 nM.
`CC(C)Cn1cnc(-c2cnc(-n3ncc4cc(C#N)cnc43)cc2NC(C)C)c1` [Example 221, 1-(5-(1-isobutyl-1H-imidazol-4-yl)-4-(isopropylamino)pyridin-2-yl)-1H-pyrazolo[3,4-b]pyridine-5-carbonitrile]: in test [1], the IC50 came out at 12 nM. It took 2210 nM to reach a half-maximal effect in test [2] (Homo sapiens) (EC50).
Take `CC(C)Nc1cc(-n2ncc3cc(C#N)cnc32)ncc1-c1cn(C(C)C)cn1` [Example 225, 1-(5-(1-isopropyl-1H-imidazol-4-yl)-4-(isopropylamino)pyridin-2-yl)-1H-pyrazolo[3,4-b]pyridine-5-carbonitrile]: the IC50 in test [1] stood at 17 nM. In test [2] (Homo sapiens), this compound displayed an EC50 of 5590 nM.
On the same counts, the results for `CC(C)Nc1cc(-n2ncc3cc(C#N)cnc32)ncc1-c1cn(CC(F)F)cn1` [Example 226, 1-(5-(1-(2,2-difluoroethyl)-1H-imidazol-4-yl)-4-(isopropylamino)pyridin-2-yl)-1H-pyrazolo[3,4-b]pyridine-5-carbonitrile] are 16 nM and 1480 nM.
The corresponding values for `CC(C)Nc1cc(-n2ncc3cc(C#N)cnc32)ncc1-c1cn(CC2CC2)cn1` [Example 229, 1-(5-(1-(cyclopropylmethyl)-1H-imidazol-4-yl)-4-(isopropylamino)pyridin-2-yl)-1H-pyrazolo[3,4-b]pyridine-5-carbonitrile] are 10 nM and 590 nM.
The corresponding values for `CC(C)Nc1cc(-n2ncc3cc(C#N)cnc32)ncc1-c1cn(CC2CCC2)cn1` [Example 233, 1-(5-(1-(cyclobutylmethyl)-1H-imidazol-4-yl)-4-(isopropylamino)pyridin-2-yl)-1H-pyrazolo[3,4-b]pyridine-5-carbonitrile] are 4 nM and 530 nM.
On to `CC(=O)N1CC(Cn2cnc(-c3cnc(-n4ncc5cc(C#N)cnc54)cc3NC(C)C)c2)C1` [Example 234, 1-(5-(1-((1-acetylazetidin-3-yl)methyl)-1H-imidazol-4-yl)-4-(isopropylamino)pyridin-2-yl)-1H-pyrazolo[3,4-b]pyridine-5-carbonitrile], for which the IC50 in test [1] stood at 16 nM. In test [2] (Homo sapiens), this compound had a concentration giving a half-maximal response (EC50) of 440 nM.
On the same counts, the results for `CC(C)Nc1cc(-n2ncc3cc(C#N)cnc32)ncc1-c1cn(CC2COC2)cn1` [Example 236, 1-(4-(isopropylamino)-5-(1-(oxetan-3-ylmethyl)-1H-imidazol-4-yl)pyridin-2-yl)-1H-pyrazolo[3,4-b]pyridine-5-carbonitrile] are 11 nM and 990 nM.

As a reminder, the IC50 is the concentration at which inhibition is half-maximal. Broadly, the EC50 is the concentration needed to bring the measured effect to its halfway point.
